The values below come from publication PMC7345095, “New Synthetic Nitro-Pyrrolomycins as Promising Antibacterial and Anticancer Agents” (Antibiotics, 2020).

Values after ≈ are worked out from the molar mass of the structure shown.

The test system of the first series is Pseudomonas aeruginosa ATCC 10145. Description: Kill curve assay (MBC), planktonic cells. It is filed as cell-based. The note with it: Pseudomonas aeruginosa, ATCC10145; minimal bactericidal concentration, planktonic cells, 24 h challenge, LB medium; read-out: MBC P. aeruginosa. The protocol: (§1) Kill curve assays were performed to test the antimicrobial efficacy of pyrrolomycins (i.e., 1, 2, 5a, 5b, 5c, 5d), as well as that of the natural PM-C against the indicator pathogen Staphylococcus aureus ATCC 25923 and Pseudomonas aeruginosa ATCC 10145 strains. Briefly, a single colony of either S. aureus or P. aeruginosa strains was picked up and pre-cultivated (ca. 16 h) at 37 °C with shacking (160 rpm) in Luria Bertani medium (hereinafter named as LB and composed of (g L^−1): sodium chloride, 10; yeast extract, 5; tryptone, 10). The same medium was solidified by adding 15 g L^−1 of bacteriological agar when needed. Bacterial cells were then inoculated (1% v/v) in LB medium amended with increasing concentrations—ranging from 0 to 100 μM as initial concentration—of each pyrrolomycin tested, challenging the cultures for 24 h and incubating them as reported above. The actual number of viable colony forming units per milliliter of culture (CFU mL^−1) of each bacterial strain, who survived the challenge exerted by pyrrolomycins, was evaluated through the spot plate count method and compared to unchallenged cultures, as reported elsewhere. The data are reported as average values (n = 3) of CFU mL^−1 in the logarithmic (Log10) scale with standard deviation (SD). Evaluation of the MIC of PM-5c, and -5d against S. aureus and of PM-5d against P. aeruginosa was performed by incubating 1% (v/v) of an overnight bacterial suspension in LB medium in presence of increasing concentrations of the PMs. As a control, MIC of PM-C was measured. At the time of the inoculum and after overnight challenge, the absorbance of the cultures at 600 nm, which is an indirect way to measure the bacterial cell growth, was registered using a Spark™ 10 M multimode microplate reader measuring. The experiment was carried out in triplicate, being the absorbance corrected by subtracting that of the culture medium amended with the corresponding PM tested.
In the case of `O=C(c1cc(Br)cc(Br)c1O)c1[nH]c(Br)c(Br)c1Br` [PM 1, 3,4,5,3′,5′-Pentabromo-2-(2′-hydroxybenzoyl)pyrrole, reference compound], the MBC (usually the lowest tested concentration that kills the bacteria rather than only halting them) was greater than 100 µM.

Turning to `COc1c(Br)cc(Br)cc1C(=O)c1c(Br)c(Br)c(Br)n1C` [PM 2, (3,5-Dibromo-2-methoxyphenyl)(3,4,5-tribromo-1-methyl-1H-pyrrol-2-yl)methanone], the MBC is greater than 100 µM.

The series is the same for the next values; noted with them: highest concentration tested 100 μM, 24 h.
In the case of `O=C(c1cc(Br)cc(Br)c1O)c1[nH]c(Br)c(Br)c1Br` [PM 1, 3,4,5,3′,5′-Pentabromo-2-(2′-hydroxybenzoyl)pyrrole, reference compound], the “log reduction in the number of viable CFUs, P. aeruginosa” value came to 2.2 log.

Still in this series, the particulars now being: ratio of IC50 of normal hTERT-RPE-1 to MBC of P. aeruginosa; first value of the cell.
As for `O=C(c1cc(Br)cc(Br)c1O)c1[nH]c(Br)c(Br)c1Br` [PM 1, 3,4,5,3′,5′-Pentabromo-2-(2′-hydroxybenzoyl)pyrrole, reference compound], the “B-SI (Bacterial Selectivity Index), P. aeruginosa” value is listed as greater than 0.6.

As to `COc1c(Br)cc(Br)cc1C(=O)c1c(Br)c(Br)c(Br)n1C` [PM 2, (3,5-Dibromo-2-methoxyphenyl)(3,4,5-tribromo-1-methyl-1H-pyrrol-2-yl)methanone], the “B-SI (Bacterial Selectivity Index), P. aeruginosa” value is reported as greater than 1.5.

A further series has as its system Staphylococcus aureus ATCC 25923. Description: Kill curve assay (MBC), planktonic cells. It is filed as cell-based. The conditions noted are these: Staphylococcus aureus, ATCC25923; minimal bactericidal concentration, planktonic cells, 24 h challenge, LB medium; read-out: MBC S. aureus. The protocol: as §1
As to `O=C(c1cc(Br)cc(Br)c1O)c1[nH]c(Br)c(Br)c1Br` [PM 1, 3,4,5,3′,5′-Pentabromo-2-(2′-hydroxybenzoyl)pyrrole, reference compound], the minimum bactericidal concentration (MBC) was 5 µM (≈ 2.91 µg/mL).

For `COc1c(Br)cc(Br)cc1C(=O)c1c(Br)c(Br)c(Br)n1C` [PM 2, (3,5-Dibromo-2-methoxyphenyl)(3,4,5-tribromo-1-methyl-1H-pyrrol-2-yl)methanone], the MBC is 70 µM (≈ 42.7 µg/mL).

The series is the same for the next values; noted with them: ratio of IC50 of normal hTERT-RPE-1 to MBC of S. aureus; second value of the cell.
For the compound `O=C(c1cc(Br)cc(Br)c1O)c1[nH]c(Br)c(Br)c1Br` [PM 1, 3,4,5,3′,5′-Pentabromo-2-(2′-hydroxybenzoyl)pyrrole, reference compound], the “B-SI (Bacterial Selectivity Index), S. aureus” value was found to be 11.5.

As for `COc1c(Br)cc(Br)cc1C(=O)c1c(Br)c(Br)c(Br)n1C` [PM 2, (3,5-Dibromo-2-methoxyphenyl)(3,4,5-tribromo-1-methyl-1H-pyrrol-2-yl)methanone], the “B-SI (Bacterial Selectivity Index), S. aureus” value was found to be 2.1.

A further series relates to HCT116 colon cancer cell line. The series is described as follows: MTT viability assay. It is filed as cell-based. The note with it: Homo sapiens, HCT-116, 48 h, MTT, 48 h of treatment. The protocol: (§2) The HCT116 colon cancer cell line (ATCC® CCL-247™), the MCF 7 breast cancer cell line (ATCC® HTB-22™) and the hTERT RPE-1 -immortalized retinal pigment epithelial cell line (ATCC® CRL-4000™) used in this study were cultured in DMEM medium (Gibco, Paisley, UK), supplemented with 1% glutamine, 10% heat-inactivated fetal bovine serum and 100U/mL penicillin and 100 μg/mL streptomycin, as already described, and maintained at 37 °C and 5% CO2.
(§3) Cells were plated at 5 × 10^3 cells/well in 96-well plates and incubated for 24 h prior to treatment for further 48 h of different concentrations of PMs. After incubation, a sample of 20 μL of Thiazolyl Blue Tetrazolium Bromide (5 mg mL^−1) in PBS was added to each well and cultured for 2h at 37 °C in CO2 incubator. After removing the medium containing MTT and three washes with PBS, 100 μL of warm DMSO was added to each well to dissolve formazan. Samples were shaken for 10 min, at room temperature in the dark, and the absorbance was recorded at 570 nm using a microplate reader (Spark® 20M Tecan Trading AG, Switzerland). Percentage of cell viability with respect to untreated control cells (vehicle control) was calculated after subtraction of the blank. The IC50 values, that is the concentration necessary to inhibit the 50% of cell growth, was calculated using a dose-response model, obtained from sigmoidal fitting of response curves of percent inhibition versus logarithmic concentration of PMs, using Graph Pad Prism software. Each result represents the mean value of three different experiments performed in triplicate.
(In general: Tetrazolium dyes change colour on reduction, which living cells bring about.)
Turning to `O=C(c1cc(Br)cc(Br)c1O)c1[nH]c(Br)c(Br)c1Br` [PM 1, 3,4,5,3′,5′-Pentabromo-2-(2′-hydroxybenzoyl)pyrrole, reference compound], half-maximal inhibition (IC50) was put at 1.3 ± 0.3 µM.

In the case of `COc1c(Br)cc(Br)cc1C(=O)c1c(Br)c(Br)c(Br)n1C` [PM 2, (3,5-Dibromo-2-methoxyphenyl)(3,4,5-tribromo-1-methyl-1H-pyrrol-2-yl)methanone], the IC50 (in general, the point on the concentration scale where inhibition reaches its midpoint) was determined as 11.1 ± 3.26 µM.

The same series, now with this note: MTT, 48 h of treatment.
Compound `COc1c(Br)cc(Br)cc1C(=O)c1c(Br)c(Br)c(Br)n1C` [PM 2, (3,5-Dibromo-2-methoxyphenyl)(3,4,5-tribromo-1-methyl-1H-pyrrol-2-yl)methanone] yielded a 50% inhibitory concentration (IC50) of 11.1 ± 3.3 µM.

Still in this series, the particulars now being: ratio of IC50 of normal hTERT-RPE-1 to that of HCT116; first value of the cell.
For the compound `O=C(c1cc(Br)cc(Br)c1O)c1[nH]c(Br)c(Br)c1Br` [PM 1, 3,4,5,3′,5′-Pentabromo-2-(2′-hydroxybenzoyl)pyrrole, reference compound], the “C-SI (Cancer Selectivity Index), HCT116” value is given as 44.2.

`COc1c(Br)cc(Br)cc1C(=O)c1c(Br)c(Br)c(Br)n1C` [PM 2, (3,5-Dibromo-2-methoxyphenyl)(3,4,5-tribromo-1-methyl-1H-pyrrol-2-yl)methanone]: the “C-SI (Cancer Selectivity Index), HCT116” value is 13.4.

For the next series, the system named is MCF 7 breast cancer cell line. Description: MTT viability assay. It is filed as cell-based. The note with it: Homo sapiens, MCF7, 48 h, MTT, 48 h of treatment. The protocol:
as §2, §3
As to `O=C(c1cc(Br)cc(Br)c1O)c1[nH]c(Br)c(Br)c1Br` [PM 1, 3,4,5,3′,5′-Pentabromo-2-(2′-hydroxybenzoyl)pyrrole, reference compound], it took 1.22 ± 0.69 µM to reach half-maximal inhibition (IC50).

On to `COc1c(Br)cc(Br)cc1C(=O)c1c(Br)c(Br)c(Br)n1C` [PM 2, (3,5-Dibromo-2-methoxyphenyl)(3,4,5-tribromo-1-methyl-1H-pyrrol-2-yl)methanone], for which the concentration for half-maximal inhibition (IC50) is 17.2 ± 3.2 µM.

The same series, now with this note: MTT, 48 h of treatment.
For `O=C(c1cc(Br)cc(Br)c1O)c1[nH]c(Br)c(Br)c1Br` [PM 1, 3,4,5,3′,5′-Pentabromo-2-(2′-hydroxybenzoyl)pyrrole, reference compound], inhibition was half-maximal at 1.2 ± 0.7 µM (IC50).

`COc1c(Br)cc(Br)cc1C(=O)c1c(Br)c(Br)c(Br)n1C` [PM 2, (3,5-Dibromo-2-methoxyphenyl)(3,4,5-tribromo-1-methyl-1H-pyrrol-2-yl)methanone]: it took 17.2 ± 3.2 µM to reach half-maximal inhibition (IC50).

The same series, now with this note: ratio of IC50 of normal hTERT-RPE-1 to that of MCF 7; second value of the cell.
For `O=C(c1cc(Br)cc(Br)c1O)c1[nH]c(Br)c(Br)c1Br` [PM 1, 3,4,5,3′,5′-Pentabromo-2-(2′-hydroxybenzoyl)pyrrole, reference compound], the “C-SI (Cancer Selectivity Index), MCF 7” value amounted to 47.3.

As for `COc1c(Br)cc(Br)cc1C(=O)c1c(Br)c(Br)c(Br)n1C` [PM 2, (3,5-Dibromo-2-methoxyphenyl)(3,4,5-tribromo-1-methyl-1H-pyrrol-2-yl)methanone], the “C-SI (Cancer Selectivity Index), MCF 7” value worked out at 8.6.

A further series concerns hTERT RPE-1 immortalized retinal pigment epithelial cell line. The series is described as follows: MTT viability assay (cytotoxicity on normal cells). It is filed as cell-based. The note with it: hTERT-RPE1; MTT, 48 h of treatment, normal epithelial cells; read-out: IC50 hTERT-RPE-1. The protocol:
as §2, §3
With `O=C(c1cc(Br)cc(Br)c1O)c1[nH]c(Br)c(Br)c1Br` [PM 1, 3,4,5,3′,5′-Pentabromo-2-(2′-hydroxybenzoyl)pyrrole, reference compound], the half-maximal inhibitory concentration (IC50) turned out to be 57.7 ± 11.2 µM.

In the case of `COc1c(Br)cc(Br)cc1C(=O)c1c(Br)c(Br)c(Br)n1C` [PM 2, (3,5-Dibromo-2-methoxyphenyl)(3,4,5-tribromo-1-methyl-1H-pyrrol-2-yl)methanone], the 50% inhibitory concentration (IC50) is 149 ± 41 µM.

The test system of another series is HCT116 and MCF 7 cancer cell lines. Description: MTT viability assay, statements over both cancer cell lines. The note with it: MTT, 48 h challenge; group statement; read-out: IC50, regardless of the cancer cell line (HCT116, MCF 7). It is filed as cell-based. The protocol:
as §2, §3
Regarding `O=C(c1cc(Br)cc(Br)c1O)c1[nH]c(Br)c(Br)c1Br` [PM 1, 3,4,5,3′,5′-Pentabromo-2-(2′-hydroxybenzoyl)pyrrole, reference compound], the half-maximal inhibitory concentration (IC50) lay in the range of 0.8 to 2.25 µM.

As to `COc1c(Br)cc(Br)cc1C(=O)c1c(Br)c(Br)c(Br)n1C` [PM 2, (3,5-Dibromo-2-methoxyphenyl)(3,4,5-tribromo-1-methyl-1H-pyrrol-2-yl)methanone], the 50% inhibitory concentration (IC50) is greater than 7 µM.

Staying with this series, now noted: mean of HCT116 and MCF 7 C-SI.
On to `O=C(c1cc(Br)cc(Br)c1O)c1[nH]c(Br)c(Br)c1Br` [PM 1, 3,4,5,3′,5′-Pentabromo-2-(2′-hydroxybenzoyl)pyrrole, reference compound], for which the “C-SI, mean value among the two cancer cell lines” value was found to be 46.

Regarding `COc1c(Br)cc(Br)cc1C(=O)c1c(Br)c(Br)c(Br)n1C` [PM 2, (3,5-Dibromo-2-methoxyphenyl)(3,4,5-tribromo-1-methyl-1H-pyrrol-2-yl)methanone], the “C-SI, mean value among the two cancer cell lines” value came to 11.

The test system of the next series is HCT116 cells. The series is described as follows: Morphological assessment, phase contrast inverted microscope. The conditions noted are these: 0.1 µM (sub-inhibitory), 24 h. The format is cell-based. The protocol:
HCT116 cells were seeded in 24 well culture plates with a cell density of 1 × 10^5 cells/well. After 24 h cells were incubated for 24 h with different concentration of the selected PMs, and observed under a phase contrast inverted microscope (Carl Zeiss) at 200× magnification, for morphological changes assessment.
On to `O=C(c1cc(Br)cc(Br)c1O)c1[nH]c(Br)c(Br)c1Br` [PM 1, 3,4,5,3′,5′-Pentabromo-2-(2′-hydroxybenzoyl)pyrrole, reference compound], for which the “morphology of treated HCT116 cells” value is “more fibroblastic and less clumped morphology”.

The next series relates to HCT116 cells. The series is described as follows: Acridine orange/ethidium bromide (AO/EB) staining. The format is cell-based. The note with it: treated at IC50 for 24 and 48 h. From the text:
Cells were immediately observed under a fluorescent microscopy (Carl Zeiss) at 630 × magnification.
For `O=C(c1cc(Br)cc(Br)c1O)c1[nH]c(Br)c(Br)c1Br` [PM 1, 3,4,5,3′,5′-Pentabromo-2-(2′-hydroxybenzoyl)pyrrole, reference compound], the “AO/EB fluorescence of treated HCT116 cells (type of cell death)” value is listed as “red fluorescence”.

Test system in the next series: not given
Test: not given
Settings: not given
Turning to `COc1c(Br)cc(Br)cc1C(=O)c1c(Br)c(Br)c(Br)n1C` [PM 2, (3,5-Dibromo-2-methoxyphenyl)(3,4,5-tribromo-1-methyl-1H-pyrrol-2-yl)methanone], the melting point (commonly the temperature, or range, at which the solid turns liquid) lay within 179 to 180 °C.
